Experimental data as given in paper PMC9077246, “Novel spirocyclic tranylcypromine derivatives as lysine-specific demethylase 1 (LSD1) inhibitors” (RSC Advances, 2018).
Structures can show the parent of a compound that is named as a salt.

Columns and labels:
MAO-B = target: T1, MAO-B (Homo sapiens, UniProt P27338); assay: biochemical
T1 sequence (P27338 1-520): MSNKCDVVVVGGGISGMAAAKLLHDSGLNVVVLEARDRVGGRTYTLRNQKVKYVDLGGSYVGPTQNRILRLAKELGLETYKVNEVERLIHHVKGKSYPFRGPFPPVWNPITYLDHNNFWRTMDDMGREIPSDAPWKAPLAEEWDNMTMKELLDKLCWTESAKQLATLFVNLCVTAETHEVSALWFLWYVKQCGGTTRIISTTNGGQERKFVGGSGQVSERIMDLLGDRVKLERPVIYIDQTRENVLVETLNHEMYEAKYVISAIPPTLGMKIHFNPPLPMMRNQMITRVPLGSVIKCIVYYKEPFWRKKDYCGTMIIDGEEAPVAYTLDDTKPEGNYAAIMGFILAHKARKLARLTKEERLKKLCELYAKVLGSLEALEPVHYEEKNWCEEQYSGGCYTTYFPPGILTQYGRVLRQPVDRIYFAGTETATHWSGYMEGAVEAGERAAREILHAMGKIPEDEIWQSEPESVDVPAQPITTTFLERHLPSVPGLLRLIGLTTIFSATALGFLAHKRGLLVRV
Experimental: (§1) MAO-A and MAO-B enzymes were purchased from Sigma-Aldrich and the inhibition assay was tested with Promega MAO-Glo™ Assay kit according to the manufacturer's protocol. The luminescent signals were detected using Envision (PerkinElmer). The test was carried out in triplicate. And the IC50 data was calculated using the software GraphPad Prism 5, and chosen the equation “sigmoidal dose–response (variable slope)” for curve fitting.

MAO-A [1] = target: T2, MAO-A (Homo sapiens, UniProt P21397); assay: biochemical
T2 sequence (P21397 1-527): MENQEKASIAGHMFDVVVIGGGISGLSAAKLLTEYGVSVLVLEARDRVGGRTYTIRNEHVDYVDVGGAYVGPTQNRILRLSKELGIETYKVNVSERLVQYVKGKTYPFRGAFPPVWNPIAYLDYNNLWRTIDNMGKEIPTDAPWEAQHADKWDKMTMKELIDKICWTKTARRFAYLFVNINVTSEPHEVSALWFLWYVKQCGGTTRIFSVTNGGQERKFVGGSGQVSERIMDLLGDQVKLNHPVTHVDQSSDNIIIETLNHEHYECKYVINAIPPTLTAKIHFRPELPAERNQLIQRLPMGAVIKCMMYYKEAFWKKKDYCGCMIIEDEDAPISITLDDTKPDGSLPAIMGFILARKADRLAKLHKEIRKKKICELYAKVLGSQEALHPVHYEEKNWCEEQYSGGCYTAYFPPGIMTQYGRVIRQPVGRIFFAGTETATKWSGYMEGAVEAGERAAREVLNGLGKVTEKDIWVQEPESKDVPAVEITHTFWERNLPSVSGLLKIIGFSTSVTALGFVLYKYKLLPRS
Experimental: as §1

full-length LSD2 = target: T3, full-length LSD2 (Homo sapiens, UniProt Q8NB78); assay: LSD2 inhibition assay (Lance Ultra kit, TR-FRET); format: biochemical
T3 sequence (Q8NB78 1-822): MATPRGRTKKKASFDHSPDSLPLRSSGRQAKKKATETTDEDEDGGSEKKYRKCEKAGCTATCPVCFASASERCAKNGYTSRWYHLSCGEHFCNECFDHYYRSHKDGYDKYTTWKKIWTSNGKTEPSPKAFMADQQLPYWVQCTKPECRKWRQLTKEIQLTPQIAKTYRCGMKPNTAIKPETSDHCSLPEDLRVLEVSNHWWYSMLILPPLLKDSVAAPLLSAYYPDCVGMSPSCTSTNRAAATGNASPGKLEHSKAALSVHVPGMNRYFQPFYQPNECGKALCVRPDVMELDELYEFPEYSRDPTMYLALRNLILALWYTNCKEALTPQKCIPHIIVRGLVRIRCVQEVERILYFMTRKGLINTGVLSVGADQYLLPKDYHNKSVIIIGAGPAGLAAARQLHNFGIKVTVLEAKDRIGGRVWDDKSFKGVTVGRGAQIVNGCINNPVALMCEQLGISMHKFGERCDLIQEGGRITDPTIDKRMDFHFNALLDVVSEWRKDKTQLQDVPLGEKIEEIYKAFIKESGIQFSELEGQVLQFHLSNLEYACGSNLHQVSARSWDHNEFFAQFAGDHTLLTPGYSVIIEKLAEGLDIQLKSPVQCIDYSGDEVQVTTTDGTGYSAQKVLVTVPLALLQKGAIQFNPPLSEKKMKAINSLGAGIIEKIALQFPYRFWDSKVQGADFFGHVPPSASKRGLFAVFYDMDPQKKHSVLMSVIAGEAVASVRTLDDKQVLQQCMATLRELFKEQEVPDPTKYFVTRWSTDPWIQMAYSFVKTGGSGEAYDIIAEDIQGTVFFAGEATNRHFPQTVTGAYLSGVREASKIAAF
Experimental: (§2) LSD1 or LSD2 enzyme inhibition assay was performed with Lance Ultra LSD1 Histone H3-Lysine 4 Demethylase Assay kit (Perkin Elmer) according to the manufacturer's protocol. […] The test was carried out in triplicate. And the IC50 data was calculated using the software GraphPad Prism 5, and chosen the equation “sigmoidal dose–response (variable slope)” for curve fitting.

[2] = target: T4, Recombinant human LSD1 (172–852 aa) (Homo sapiens, UniProt O60341); assay: biochemical
Experimental: as §2

[3] = target: T4, Recombinant human LSD1 (172–852 aa); conditions: 23a, 23b vs 21a, 21b
Experimental: as §2

MAO-A [4] = target: T2, MAO-A; conditions: IC50 values for LSD1 vs. MAO-A
Experimental: as §1

[5] = MAO-B, IC50, Table 1, mean ± SEM, eight-point experiments, three independent experiments
[6] = MAO-A, IC50, Table 1, mean ± SEM, eight-point experiments, three independent experiments

Compound | IC50 (MAO-B; [5]) | IC50 (MAO-A [1]; [6]) | IC50 (full-length LSD2) | IC50 [2] | IC50 (MAO-B; MAO-B IC50) | IC50 (MAO-A [1]; MAO-A IC50) | fold less potent at LSD1 than the unsubstituted derivatives 21a and 21b [3] | selectivity index LSD1 vs. MAO-A in words (MAO-A [4])
COc1cc(F)ccc1CN[C@@H]1CC12CCc1ccccc12 (stereo in doubt) [Compound 18a, (2R)-N-(4-Fluoro-2-methoxybenzyl)-2′,3′-dihydrospiro[cyclopropane-1,1′-inden]-2-amine] | 8700 ± 1100 nM | 2200 ± 700 nM | 660 ± 60 nM | 7.1 ± 1.3 nM |  |  |  | 
COc1ccc(F)cc1CN[C@H]1CC12CCc1ccccc12 (stereo in doubt) [Compound 17b, (2S)-N-(5-Fluoro-2-methoxybenzyl)-2′,3′-dihydrospiro[cyclopropane-1,1′-inden]-2-amine] | 27000 ± 4000 nM | 120 ± 10 nM | 1700 ± 500 nM | 17 ± 3 nM |  |  |  | 
N[C@@H]1CC12CCc1cc(-c3ccccc3)ccc12 (stereo in doubt) [Compound 28a, (2R)-5′-phenyl-2′,3′-dihydrospiro[cyclopropane-1,1′-inden]-2-amine hydrochloride] |  |  | 94000 nM | 100 ± 10 nM | 170 nM | 460 nM |  | 
Fc1ncccc1CN[C@@H]1CC12CCc1ccccc12 (mixture of isomers) [Compound 23a, (2R)-N-((2-Fluoropyridin-3-yl)methyl)-2′,3′-dihydrospiro[cyclopropane-1,1′-inden]-2-amine] | 8200 ± 1500 nM | 9700 ± 1500 nM | 13000 ± 3000 nM | 64 ± 1 nM |  |  | approximately 4 fold | 
COc1ccc(F)cc1CN[C@@H]1CC12CCc1ccccc12 (stereo in doubt) [Compound 17a, (2R)-N-(5-Fluoro-2-methoxybenzyl)-2′,3′-dihydrospiro[cyclopropane-1,1′-inden]-2-amine] | 2300 ± 400 nM | 920 ± 180 nM | 800 ± 270 nM | 6.6 ± 1.5 nM |  |  |  | 
Fc1ncccc1CN[C@H]1CC12CCc1ccccc12 (stereo in doubt) [Compound 23b, (2S)-N-((2-Fluoropyridin-3-yl)methyl)-2′,3′-dihydrospiro[cyclopropane-1,1′-inden]-2-amine] | 29000 ± 4000 nM | 9800 ± 800 nM | 8700 ± 800 nM | 70 ± 3 nM |  |  | approximately 4 fold | 
COc1cc(F)ccc1CN[C@H]1CC12CCc1ccccc12 (stereo in doubt) [Compound 18b, (2S)-N-(4-Fluoro-2-methoxybenzyl)-2′,3′-dihydrospiro[cyclopropane-1,1′-inden]-2-amine] | 31000 ± 4000 nM | 90 ± 10 nM | 490 ± 100 nM | 15 ± 3 nM |  |  |  | low
c1ccc(CN[C@H]2CC23CCc2ccccc23)cc1 (stereo in doubt) [Compound 13b, (2S)-N-Benzyl-2′,3′-dihydrospiro[cyclopropane-1,1′-inden]-2-amine] | 5100 ± 100 nM | 130 ± 10 nM | 2000 ± 200 nM | 110 ± 20 nM |  |  |  | low
